Several values for one entry are separate records, joined by “and”; a condition that tells them apart may be missing. Equal entries are not always repeated. Where two headings read alike, the source gives them in different places.
Tests used:
[1] = DPPH method, antioxidant capacity in methanolic medium (after Brand-Williams et al., 1995); assay type: biochemical; conditions: for TEAC (Trolox équivalent antioxidant capacity): DPPH, relative to Trolox; for capacité antioxydante: overall conclusion in words from DPPH and FRAP
Source text: (§1) Pour comparaison ou pour l'expression des résultats, les capacités antioxydantes des composés suivants ont été également mesurées : vitamine C (acide ascorbique), Trolox (analogue hydrosoluble de la vitamine E), (-)-épicatéchine, et phloridzine.
Les résultats sont présentés dans les tableaux II et III ci dessous.

[2] = values of Pulido et al. (2000); cited from earlier work
[3] = FRAP method (Ferric Reducing Antioxidant Power), aqueous medium, 10 min incubation (after Pulido et al., 2000); assay type: biochemical; conditions: for TEAC: FRAP, Trolox equivalent, (SD); for EC1: antioxidant concentration with reducing power equivalent to 1 mmol/L FeSO4 7 H2O, 10 min incubation, mean of 3 (SD)
Method: as §1
Tableau III - Mesure de la capacité antioxydante en milieu aqueux par la méthode FRAP pour 10 minutes d'incubation (d'après Pulido et al., 2000).

[4] = sign only; other natural yellow colourants, source not given; cited from earlier work
[5] = Optical density at 420 nm of the esterification reaction medium (colouring capacity); assay type: physicochemical; conditions: unpurified POP fraction incubated with acidified alcohol, 50 °C, 1 h
Source text: Le volume d'alcool est ajusté de façon à avoir une concentration finale en fraction POP de 1 g.L^-1. Les alcools suivants ont été testés : méthanol, propanol-1, propanol-2, butanol-1, butanol-3, hexanol-1, octanol-1.
Confirmation de la conversion en esters : la formation des esters correspondant a été montrée par HPLC couplée à la spectrométrie de masse en mode négatif et avec également en série une détection à 420 nm (jaune). […] Tableau I: Temps de rétention chromatographique, ions pseudo-moléculaires et rendements de conversion du composé de formule I-b-1 et de ses dérivés estérifiés.

[6] = Molar extinction coefficient (UV-visible); assay type: physicochemical
Source text: Une solution à 20 ppm de ce composéest jaune intense.
Le spectre UV-visible d'une solution de préparation POP a été mesuré pour différents pH entre 2 et 8 (voir figure 1). Des mesures de couleur (chromamètre Minolta) ont également été réalisées dans cette zone de pH. Les résultats détaillés des paramètres colorimétriques sont consignés ci-après.

cellules TC-7 = test: Cytotoxicity test, cell viability by neutral red method; assay type: cell-based; conditions: for % Témoin / DO Moyenne: 2 h; for % Témoin: cell viability; for DO Moyenne: mean of 5
Method: Cellules TC-7 (sous clone de caco-2) cultivées sur nacelles (membrane en polyéthylène téréphtalate), utilisées à 21 jours de confluence, fournie par Bioprédic International
Emploi des cellules au passage 21.
Pas de solvant utilisé pour la solubilisation des produits à l'essai.
Système réactionnel : cultures de cellules TC-7 incubées en présence des produits à l'essai aux différentes concentrations citées ci-dessus.
Temps d'incubation : 2 heures. [drawing 6] ↑ : incubation des produits à l'essai ? : évaluation des effets Replicate : 5 par concentrations. Température d'incubation : 37°C. Autres conditions : atmosphère humide contenant 5 % de CO2.
Témoin : correspondant aux cellules incubées en absence de produit à l'essai [drawing 8] Replicate : 10
Viabilité cellulaire mesurée selon la méthode du rouge neutre après incubation avec les produits à l'essai : • incubation en présence de rouge neutre pendant 3 heures • lyse des cellules et lecture de la densité optique avec un spectrophotomètre à 540 nm (la densité optique du rouge neutre est proportionnelle au nombre de cellules vivantes).
Expression des résultats : en unités arbitraires de D.O.(densité optique) par échantillon et en pourcentage de variation par rapport au groupe témoin.

[7] = Colorimetric parameters CIE L*a*b* (Minolta CM-3600d spectrophotometer) in Mc Ilvaine buffer; assay type: physicochemical; design: key to L* : luminosité / a* : axe vert-rouge / b* : axe bleu-jaune: CIE L*a*b* coordinates (illuminant D65, 10° observer)
Source text: Les paramètres de coloration du colorant par rapport à de l'eau distillée (référence) ont été mesurés en solution dans un tampon de M^c Ilvaine (citrate-phosphate) à différents pH (2,2 à 8) et ce, pour plusieurs concentrations.
Les mesures ont été réalisées à l'aide d'un spectrophotomètre Minolta CM-3600d (©1998 Minolta Co., Ltd. Japon) avec la plaque de calibration (Minolta n° 13171008). Le spectrophotomètre équipé d'un logiciel de retraitement SpectraMagic V 3.60G (Cyberchrome Inc Minolta Co. Ltd), a été paramétré pour utiliser l'espace colorimétrique CIE L*a*b (Figure 2), avec l'illuminant D65-10° (D65-A-F2), et l'observateur moyen normalisé 10° CIE 1964 (sensibilité d'un oeil moyen). A partir des valeurs a* et b* nous avons calculé les coordonnées polaires C* = sqrt(((a*))^2 + ((b*))^2) et h = tan g^-1 ((a*)/(b*)) × (180)/(Pi) [formula] Dans la suite du texte nous exploiterons principalement ces coordonnées polaires C* et h, car elles ont chacune une signification colorimétrique : C* est la distance au centre de l'espace et correspond à la saturation de la couleur alors que h est un angle (exprimé ici en degré) qui définit la teinte. A titre indicatif pour la couleur rouge la teinte se situe au voisinage de 0°, pour le jaune environ 90°, pour le vert 180° et pour le bleu 270°. La valeur L* est utilisée telle quelle et exprime la clarté.

[8] = 5 mg/L, pH 3, tampon de Mc Ilvaine
[9] = 10 mg/L, pH 3, tampon de Mc Ilvaine
[10] = 20 mg/L, pH 3, tampon de Mc Ilvaine
[11] = 40 mg/L, pH 3, tampon de Mc Ilvaine
[12] = 100 mg/L, pH 3, tampon de Mc Ilvaine
[13] = pH 2,2, env. 20 mg/L, tampon de Mc Ilvaine
[14] = pH 3, env. 20 mg/L, tampon de Mc Ilvaine
[15] = pH 4, env. 20 mg/L, tampon de Mc Ilvaine
[16] = pH 5, env. 20 mg/L, tampon de Mc Ilvaine
[17] = pH 6, env. 20 mg/L, tampon de Mc Ilvaine
[18] = pH 7, env. 20 mg/L, tampon de Mc Ilvaine
[19] = pH 8, env. 20 mg/L, tampon de Mc Ilvaine

In the case of Oc1cc(O)c2c(c1)O[C@H](c1ccc(O)c(O)c1)[C@H](O)C2 [(-)-épicatéchine], the “TEAC (Trolox équivalent antioxidant capacity)” value [1] is given as 1,12, the EC1 [2] is given as 348 and the TEAC [3] is given as 1.14 (0.03). For the same compound, the EC1 [3] was 359 µmol/L and 359 (11) µmol/L.
For O=C(O)CCc1cc(O)c(O)cc1-c1c(O)cc(O)cc1C1O[C@H](CO)[C@@H](O)[C@H](O)[C@H]1O (stereo partly drawn) [I-a-1, acide 3-(4,5,4',6'-tetrahydroxy-2'-glucosyl-biphenyl-2-yl)-propionique], the “TEAC (Trolox équivalent antioxidant capacity)” value [1] was 0,78, the “capacité antioxydante, fold over phloridzine” value ([1]; overall conclusion from DPPH and FRAP) was 10 fois and the capacité antioxydante [1] was “capacité antioxydante importante”. For the same compound, the EC1 [3] was 477 (15) µmol/L.
In the case of O=C(CCc1ccc(O)cc1)c1c(O)cc(O)cc1O[C@@H]1O[C@H](CO)[C@@H](O)[C@H](O)[C@H]1O [Phloridzine, phloridzine, reference compound], the “TEAC (Trolox équivalent antioxidant capacity)” value [1] is reported as 0,09, the capacité antioxydante [1] is reported as “très faible” and the TEAC [3] is reported as 0.08 (0.00).
In the case of Cc1c(C)c2c(c(C)c1O)CCC(C)(C(=O)O)O2 (stereo not drawn) [Trolox], the “TEAC (Trolox équivalent antioxidant capacity)” value [1] is given as 1,00, the EC1 [2] is given as 322 and the TEAC [3] is given as 1.00 (0.02). For the same compound, the EC1 [3] was 411 µmol/L and 411 (10) µmol/L.
In the case of O=C1O[C@H]([C@@H](O)CO)C(O)=C1O [Vitamine C, acide ascorbique], the “TEAC (Trolox équivalent antioxidant capacity)” value [1] is listed as 0,98, the EC1 [2] is listed as 392 and the TEAC [3] is listed as 1.03 (0.02). The EC1 [3] was 400 (9) µmol/L and the EC1 ([3]; listed as vitamine C) was 400 µmol/L.
For COc1cc(/C=C/C(=O)CC(=O)/C=C/c2ccc(O)c(OC)c2)ccc1O [curcumine], the “logP (P coeff. de partage [n-octanol/eau])” value [4] is listed as “positif”.
For O=c1c(O)c(-c2ccc(O)c(O)c2)oc2cc(O)cc(O)c12 [quercétine], the “logP (P coeff. de partage [n-octanol/eau])” value [4] is listed as “positif”.
With “acide 3-(4'-hydroxy-2'-glucosyl-4,5-dioxo-3,6-dihydro-2H-dibenzofuran-2-yl)-propionique [I-b-1]” the “TEAC (Trolox équivalent antioxidant capacity)” value [1] was 0,09, the capacité antioxydante [1] was “faible capacité antioxydante” and the “DO 420 nm (jaune) du milieu réactionnel dilué à 0,1 g/l” value [5] was 0,973. The “coefficient d'extinction molaire” value ([6]; 420 nm à pH 3, estimated) was 17400 mol⁻¹ cm⁻¹, the “coefficient d'extinction molaire ε” value ([6]; pH 3) was 17 400 DO.mol^-1.L^-2.cm^-1 and the “% Témoin” value (cellules TC-7; 20 µM) was 101%. The “DO Moyenne” value (cellules TC-7; 20 µM) was 0,489, the “% Témoin” value (cellules TC-7; 100 µM) was 104% and the “DO Moyenne” value (cellules TC-7; 100 µM) was 0,504. The “% Témoin” value (cellules TC-7; 200 µM) was 96%, the “DO Moyenne” value (cellules TC-7; 200 µM) was 0,467 and the “effet sur la viabilité cellulaire” value (cellules TC-7; 1000 µM) was “une légère diminution de la viabilité cellulaire”. For the same compound, the “% Témoin” value (cellules TC-7; 1000 µM) was 104%, the “DO Moyenne” value (cellules TC-7; 1000 µM) was 0,504 and the “% Témoin” value (cellules TC-7; 2000 µM) was 93%. For the same compound, the “DO Moyenne” value (cellules TC-7; 2000 µM) was 0,448, the “effet sur la viabilité cellulaire” value (cellules TC-7; at the tested concentrations (20-2000 µM)) was “n'a pas eu d'effet sur la viabilité cellulaire” and the “effet sur la viabilité cellulaire” value (cellules TC-7; jusqu'à 200 µM) was “Aucun effet inhibiteur de référence n'a été noté”. The “L* : luminosité” value [7, 8] was 99,6, the “Teinte CIE” value [7, 8] was 3,5 and the “a* : axe vert-rouge” value [7, 8] was -4,6. The “b* : axe bleu-jaune” value [7, 8] was 11,5, the “L* : luminosité” value [7, 9] was 99,3 and the “Teinte CIE” value [7, 9] was 6,7. For the same compound, the “a* : axe vert-rouge” value [7, 9] was -8,5, the “b* : axe bleu-jaune” value [7, 9] was 22,8 and the “L* : luminosité” value [7, 10] was 98,7. The “Teinte CIE” value [7, 10] was 11,1, the “a* : axe vert-rouge” value [7, 10] was -13,6 and the “b* : axe bleu-jaune” value [7, 10] was 41,5. For the same compound, the “L* : luminosité” value [7, 11] was 97,9, the “Teinte CIE” value [7, 11] was 14,3 and the “a* : axe vert-rouge” value [7, 11] was -17,7. For the same compound, the “b* : axe bleu-jaune” value [7, 11] was 67,1, the “L* : luminosité” value [7, 12] was 96,5 and the “Teinte CIE” value [7, 12] was 10,4. The “a* : axe vert-rouge” value [7, 12] was -17,8, the “b* : axe bleu-jaune” value [7, 12] was 96,0 and the “L* : luminosité” value [7, 13] was 98,7. For the same compound, the “Teinte CIE” value [7, 13] was 11,2, the “a* : axe vert-rouge” value [7, 13] was -13,5 and the “b* : axe bleu-jaune” value [7, 13] was 40,7. For the same compound, the “L* : luminosité” value [7, 14] was 98,5, the “Teinte CIE” value [7, 14] was 11,0 and the “a* : axe vert-rouge” value [7, 14] was -13,4. For the same compound, the “b* : axe bleu-jaune” value [7, 14] was 41,1, the “L* : luminosité” value [7, 15] was 98,4 and the “Teinte CIE” value [7, 15] was 10,2. For the same compound, the “a* : axe vert-rouge” value [7, 15] was -13,2, the “b* : axe bleu-jaune” value [7, 15] was 42,3 and the “L* : luminosité” value [7, 16] was 97,5. The “Teinte CIE” value [7, 16] was 5,9, the “a* : axe vert-rouge” value [7, 16] was -11,4 and the “b* : axe bleu-jaune” value [7, 16] was 46,7. For the same compound, the “L* : luminosité” value [7, 17] was 93,5, the “Teinte CIE” value [7, 17] was -20,5 and the “a* : axe vert-rouge” value [7, 17] was -0,1. For the same compound, the “b* : axe bleu-jaune” value [7, 17] was 57,7, the “L* : luminosité” value [7, 18] was 88,1 and the “Teinte CIE” value [7, 18] was -63,5. The “a* : axe vert-rouge” value [7, 18] was 16,3, the “b* : axe bleu-jaune” value [7, 18] was 71,4 and the “L* : luminosité” value [7, 19] was 87,1. For the same compound, the “Teinte CIE” value [7, 19] was -71,8, the “a* : axe vert-rouge” value [7, 19] was 19,5 and the “b* : axe bleu-jaune” value [7, 19] was 72,2. For the same compound, the “Teinte CIE” value ([7]; pH inférieur à 5-6 (yellow)) was 10 and the “Teinte CIE” value ([7]; pH supérieurs (orange)) was -50.

Source: EP1685120B1, “COLOURING HYDROSOLUBLE YELLOW PREPARATION DERIVED FROM DIHYDROCHALCONES” (INSTITUT NATIONAL DE LA RECHERCHE AGRONOMIQUE, priority 2003, dated 2005)
